Assay results as given in patent US8906909B2 (Curis, Inc., priority 2009, dated 2014).

How the values were obtained:
OPM-2 cells = assay: Cell proliferation assay Method B, OPM-2; type: cell-based; settings: Homo sapiens, Multiple Myeloma, 72 hours, read-out: antiproliferative activity IC50, OPM-2
Protocol: (§1) Cancer cell lines were plated at 5,000 to 10,000 per well in 96-well flat bottomed plates with various concentration of compounds. The cells were incubated with compounds for 72 hours in the presence of 0.5% of fetal bovine serum. Growth inhibition was accessed by adenosine triphosphate (ATP) content assay using Promega CellTiter-Glo kit. Promega CellTiter-Glo kit is an ATP monitoring system based on firefly luciferase. Briefly, 16 μl of mammalian cell lysis and substrate solution was added to 84 μl of culture medium per well to lyse the cells and stabilize the ATP. The mixture was shaken and incubated for 30 minutes and subsequently the luminescence was measured.

A549 cells = assay: Cell proliferation assay Method B, A549; type: cell-based; settings: Homo sapiens, NSCLC, 72 hours, read-out: antiproliferative activity IC50, A549
Protocol: as §1

CFPAC-1 cells = assay: Cell proliferation assay Method B, CFPAC-1; type: cell-based; settings: Homo sapiens, Pancreas, 72 hours, read-out: antiproliferative activity IC50, CFPAC-1
Protocol: as §1

SW403 cells = assay: Cell proliferation assay Method B, SW403; type: cell-based; settings: Homo sapiens, SW-403, Colon, 72 hours, read-out: antiproliferative activity IC50, SW403
Protocol: as §1

H460 cells = assay: Cell proliferation assay Method B, H460; type: cell-based; settings: Homo sapiens, NCI-H460, NSCLC, 72 hours, read-out: antiproliferative activity IC50, H460
Protocol: as §1

H358 cells = assay: Cell proliferation assay Method B, H358; type: cell-based; settings: Homo sapiens, NCI-H358, NSCLC, 72 hours, read-out: antiproliferative activity IC50, H358
Protocol: as §1

SW620 cells = assay: Cell proliferation assay Method B, SW620; type: cell-based; settings: Homo sapiens, SW-620, Colon, 72 hours, read-out: antiproliferative activity IC50, SW620
Protocol: as §1

T-84 cells = assay: Cell proliferation assay Method B, T-84; type: cell-based; settings: Homo sapiens, T84, Colon, 72 hours, read-out: antiproliferative activity IC50, T-84
Protocol: as §1

H2122 cells = assay: Cell proliferation assay Method B, H2122; type: cell-based; settings: Homo sapiens, NCI-H2122, NSCLC, 72 hours, read-out: antiproliferative activity IC50, H2122
Protocol: as §1

OVCAR-5 cells = assay: Cell proliferation assay Method B, OVCAR-5; type: cell-based; settings: Homo sapiens, Ovarian, 72 hours, read-out: antiproliferative activity IC50, OVCAR-5
Protocol: as §1

MiaPaca1 cells = assay: Cell proliferation assay Method B, MiaPaca1; type: cell-based; settings: Pancreas, 72 hours, read-out: antiproliferative activity IC50, MiaPaca1
Protocol: as §1

HCT-118 cells = assay: Cell proliferation assay Method A (ATPlite), HCT-118; type: cell-based; settings: 72 hours, read-out: antiproliferative activity IC50, HCT-118
Protocol: (§2) Cancer cell lines were plated at 5,000 to 10,000 per well in 96-well flat bottomed plates with various concentration of compounds. The cells were incubated with compounds for 72 hours in the presence of 0.5% of fetal bovine serum. Growth inhibition was accessed by adenosine triphosphate (ATP) content assay using Perkin Elmer ATPlite kit. ATPlite is an ATP monitoring system based on firefly luciferase. Briefly, 25 μl of mammalian cell lysis solution was added to 50 μl of phenol red-free culture medium per well to lyse the cells and stabilize the ATP. 25 μl of substrate solution was then added to the well and subsequently the luminescence was measured.

PI3Kγ (p120γ) = target: T1, PI3Kγ (p120γ) (Homo sapiens, UniProt P48736); assay: PI3Kγ TR-FRET (HTRF) assay; type: biochemical; settings: 10 μM ATP
T1 construct: His tag (N); made in house; host or cells: Baculovirus-infected Sf9 insect cells
T1 sequence (P48736 whole entry): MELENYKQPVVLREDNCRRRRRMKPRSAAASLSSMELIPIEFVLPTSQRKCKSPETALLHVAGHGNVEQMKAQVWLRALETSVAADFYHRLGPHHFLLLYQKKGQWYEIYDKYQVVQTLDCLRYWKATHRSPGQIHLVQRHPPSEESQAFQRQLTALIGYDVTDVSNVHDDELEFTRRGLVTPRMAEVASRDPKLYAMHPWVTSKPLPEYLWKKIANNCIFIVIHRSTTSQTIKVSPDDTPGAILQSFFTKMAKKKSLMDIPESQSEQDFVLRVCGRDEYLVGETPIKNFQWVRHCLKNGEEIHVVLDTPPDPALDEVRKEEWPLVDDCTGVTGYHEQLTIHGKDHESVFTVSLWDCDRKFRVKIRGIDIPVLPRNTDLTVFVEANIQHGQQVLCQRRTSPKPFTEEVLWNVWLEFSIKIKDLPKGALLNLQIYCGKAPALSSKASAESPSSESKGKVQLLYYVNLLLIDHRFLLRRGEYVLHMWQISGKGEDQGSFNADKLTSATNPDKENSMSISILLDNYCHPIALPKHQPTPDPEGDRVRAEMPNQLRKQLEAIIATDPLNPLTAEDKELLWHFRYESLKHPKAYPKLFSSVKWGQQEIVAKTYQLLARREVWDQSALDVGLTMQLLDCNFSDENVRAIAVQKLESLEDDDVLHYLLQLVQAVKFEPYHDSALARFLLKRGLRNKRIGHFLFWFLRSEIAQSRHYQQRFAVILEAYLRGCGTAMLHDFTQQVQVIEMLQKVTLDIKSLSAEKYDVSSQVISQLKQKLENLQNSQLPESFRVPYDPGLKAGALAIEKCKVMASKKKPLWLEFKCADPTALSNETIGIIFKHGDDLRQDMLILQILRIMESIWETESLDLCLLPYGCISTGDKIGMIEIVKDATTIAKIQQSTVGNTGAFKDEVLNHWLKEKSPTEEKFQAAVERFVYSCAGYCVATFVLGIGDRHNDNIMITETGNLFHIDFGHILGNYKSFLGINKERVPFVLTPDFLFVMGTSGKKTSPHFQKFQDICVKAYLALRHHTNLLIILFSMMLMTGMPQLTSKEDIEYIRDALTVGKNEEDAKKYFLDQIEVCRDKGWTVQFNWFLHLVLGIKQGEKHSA
Text: The proteins are purified by one-step affinity chromatography using glutathione-agarose.

PI3Kβ (p110β/p85α) = target: T2, PI3Kβ (p110β/p85α) (Homo sapiens, UniProt P42338); assay: PI3Kβ TR-FRET (HTRF) assay; type: biochemical; settings: 10 μM ATP
T2 construct: N-terminal histidine-tagged recombinant full-length human p110β; His tag (N); made in house; host or cells: Baculovirus-infected Sf21 insect cells
T2 sequence (P42338 whole entry): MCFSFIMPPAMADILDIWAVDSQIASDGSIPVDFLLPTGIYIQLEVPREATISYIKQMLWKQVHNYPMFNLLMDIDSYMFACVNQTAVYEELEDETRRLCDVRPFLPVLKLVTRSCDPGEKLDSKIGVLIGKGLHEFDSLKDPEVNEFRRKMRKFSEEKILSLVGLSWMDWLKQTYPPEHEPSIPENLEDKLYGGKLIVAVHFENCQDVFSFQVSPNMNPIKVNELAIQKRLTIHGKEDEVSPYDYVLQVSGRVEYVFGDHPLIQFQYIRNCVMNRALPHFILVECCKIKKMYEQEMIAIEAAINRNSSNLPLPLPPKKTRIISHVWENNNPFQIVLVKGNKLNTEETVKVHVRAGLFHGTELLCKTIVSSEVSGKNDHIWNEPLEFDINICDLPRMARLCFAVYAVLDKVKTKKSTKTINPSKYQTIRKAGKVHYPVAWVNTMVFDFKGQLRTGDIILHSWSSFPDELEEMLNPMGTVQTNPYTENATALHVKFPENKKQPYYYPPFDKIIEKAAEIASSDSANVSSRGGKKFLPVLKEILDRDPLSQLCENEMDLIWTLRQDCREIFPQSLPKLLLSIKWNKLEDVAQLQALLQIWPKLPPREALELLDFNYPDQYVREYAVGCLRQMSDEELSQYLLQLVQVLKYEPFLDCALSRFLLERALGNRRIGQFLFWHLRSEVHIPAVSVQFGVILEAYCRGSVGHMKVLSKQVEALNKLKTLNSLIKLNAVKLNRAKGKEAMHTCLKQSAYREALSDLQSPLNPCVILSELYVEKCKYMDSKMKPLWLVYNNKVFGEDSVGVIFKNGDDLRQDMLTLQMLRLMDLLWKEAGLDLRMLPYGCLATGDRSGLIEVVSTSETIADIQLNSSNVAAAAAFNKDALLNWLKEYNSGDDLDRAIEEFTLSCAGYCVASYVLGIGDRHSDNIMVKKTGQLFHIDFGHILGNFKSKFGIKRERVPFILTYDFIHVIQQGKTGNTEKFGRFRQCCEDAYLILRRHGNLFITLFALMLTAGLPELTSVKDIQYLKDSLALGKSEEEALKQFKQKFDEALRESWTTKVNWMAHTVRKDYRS
T2 sequence (P27986 whole entry partner): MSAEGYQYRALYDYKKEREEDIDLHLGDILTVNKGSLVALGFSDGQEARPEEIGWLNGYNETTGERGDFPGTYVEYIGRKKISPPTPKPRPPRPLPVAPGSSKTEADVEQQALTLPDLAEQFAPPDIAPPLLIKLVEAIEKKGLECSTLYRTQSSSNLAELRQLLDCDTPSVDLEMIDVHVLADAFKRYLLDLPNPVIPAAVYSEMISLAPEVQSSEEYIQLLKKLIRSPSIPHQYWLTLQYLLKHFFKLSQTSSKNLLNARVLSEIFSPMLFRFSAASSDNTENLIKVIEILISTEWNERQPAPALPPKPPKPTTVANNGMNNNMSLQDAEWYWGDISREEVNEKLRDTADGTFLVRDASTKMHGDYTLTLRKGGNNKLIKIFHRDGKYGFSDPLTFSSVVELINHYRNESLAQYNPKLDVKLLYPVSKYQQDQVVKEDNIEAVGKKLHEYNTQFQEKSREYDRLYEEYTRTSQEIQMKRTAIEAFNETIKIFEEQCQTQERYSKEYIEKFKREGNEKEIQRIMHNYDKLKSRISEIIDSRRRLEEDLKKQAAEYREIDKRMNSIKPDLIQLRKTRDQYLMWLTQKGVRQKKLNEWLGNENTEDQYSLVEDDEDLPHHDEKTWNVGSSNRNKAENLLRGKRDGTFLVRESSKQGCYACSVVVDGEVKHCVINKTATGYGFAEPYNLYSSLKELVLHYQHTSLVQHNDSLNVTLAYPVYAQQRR
Protocol: Activity of PI3Kβ was measured using time-resolved fluorescence resonance energy transfer (TR-FRET) assay utilizing homogenous time resolved fluorescence (HTRF) technology. PI3Kβ, a complex of N-terminal histidine-tagged recombinant full-length human p110β and untagged recombinant full length human p85α were coexpressed in a Baculovirus infected Sf21 cell expression system. (GenBank Accession No. for p110β, NM—006219; for p85α, XM—043865) The proteins are purified by one-step affinity chromatography using glutathione-agarose. A competition assay was performed to measure the amount of PIP3 generated from PIP2 in the presence of purified recombinant PI3 Kbeta (p110β/p85α). PI3Kβ was incubated with 10 μM PIP2 substrate in the reaction buffer (20 mM HEPES, pH 7.5, 10 mM NaCl, 4 mM MgCl2, 2 mM DTT, 10 μM ATP and 1% DMSO) for 30 minutes at 30° C. The reaction product was then mixed with a PIP3 detector protein, europium-labeled antibody, biotin-labeled PIP3 probe and allophycocyanin-labeled Streptavidin. A sensor complex is formed to generate a stable TR-FRET signal in the reaction mixture. This signal intensity decrease as biotin-labeled probe binding to the PIP3 detector is displaced by PIP3 produced by enzymatic activity and the amount of unbound biotin-labeled PIP3 probe in the mixture increases. TR-FRET signal was determined using microplate reader with background subtraction.

BT-474 cells = assay: Cell proliferation assay Method A (ATPlite), BT-474; type: cell-based; settings: Homo sapiens, 72 hours, read-out: antiproliferative activity IC50, BT-474
Protocol: as §2

Structure (SMILES) | IC50 (OPM-2 cells) | IC50 (A549 cells) | IC50 (CFPAC-1 cells) | IC50 (SW403 cells) | IC50 (H460 cells) | IC50 (H358 cells) | IC50 (SW620 cells) | IC50 (T-84 cells) | IC50 (H2122 cells) | IC50 (OVCAR-5 cells) | IC50 (MiaPaca1 cells) | IC50 (HCT-118 cells) | IC50 (PI3Kγ (p120γ)) | IC50 (PI3Kβ (p110β/p85α)) | IC50 (BT-474 cells)
CS(=O)(=O)N1CCN(Cc2cc3nc(-c4cccc5[nH]ncc45)nc(N4CCOCC4)c3s2)CC1 [GDC-0941, reference compound] | 100 to 1000 nM | 1000 to 10000 nM | > 10000 nM | > 10000 nM | > 10000 nM | 1000 to 10000 nM | > 10000 nM | 1000 to 10000 nM | 1000 to 10000 nM | 100 to 1000 nM | > 10000 nM |  |  |  | 
CN(Cc1cc2nc(-c3ccc(N)cc3)nc(N3CCOCC3)c2s1)c1ncc(C(=O)NO)cn1 [Compound 150, 2-(((2-(4-aminophenyl)-4-morpholinothieno[3,2-d]pyrimidin-6-yl)methyl)(methyl)amino)-N-hydroxypyrimidine-5-carboxamide] |  |  |  |  |  |  |  |  |  |  |  | < 100 nM | 100 to 1000 nM | < 100 nM | < 100 nM
